Measurements from the supplement of paper PMC10307832.

Tests used:
Experiment in all cases: relative viability (nuclei count vs DMSO), 5 days (fraction); higher = more cells survive
CUDC-101 + Foretinib = compound: C#Cc1cccc(Nc2ncnc3cc(OC)c(OCCCCCCC(=O)NO)cc23)c1 [CUDC-101] + COc1cc2c(Oc3ccc(NC(=O)C4(C(=O)Nc5ccc(F)cc5)CC4)cc3F)ccnc2cc1OCCCN1CCOCC1 [Foretinib] (partner 0.25 µM)
Procedure, shortened: (§1)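 For relative viability, nuclei counts in treated wells were divided by those in vehicle wells. Lung cancer cell lines had been pin-tool dosed in 1536-well plates the day after seeding and cultured for 5 days, then fixed and stained in one step (final 0.05% Triton X-100, 1% formaldehyde, 1 ug/ml Hoechst) and imaged at 4×. Doses were one drug alone or a fixed anchor-drug dose plus five library-drug doses (not always all listed) in √10 steps, and values are duplicate-plate medians.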

CUDC-101 + Alpelisib = compound: C#Cc1cccc(Nc2ncnc3cc(OC)c(OCCCCCCC(=O)NO)cc23)c1 [CUDC-101] + Cc1nc(NC(=O)N2CCC[C@H]2C(N)=O)sc1-c1ccnc(C(C)(C)C(F)(F)F)c1 [Alpelisib] (partner 2 µM)
Procedure, shortened: as §1

CUDC-101 + Decitabine = compound: C#Cc1cccc(Nc2ncnc3cc(OC)c(OCCCCCCC(=O)NO)cc23)c1 [CUDC-101] + Nc1ncn([C@H]2C[C@H](O)[C@@H](CO)O2)c(=O)n1 [Decitabine] (partner 2 µM)
Procedure, shortened: as §1

NVP-TAE684 + Phenformin = compound: COc1cc(N2CCC(N3CCN(C)CC3)CC2)ccc1Nc1ncc(Cl)c(Nc2ccccc2S(=O)(=O)C(C)C)n1 [NVP-TAE684] + N=C(N)NC(=N)NCCc1ccccc1 [Phenformin] (partner 250 µM)
Procedure, shortened: as §1

Cell Line | relative viability (CUDC-101 + Foretinib; first compound 0.01 µM) | relative viability (CUDC-101 + Foretinib; first compound 0.03162 µM) | relative viability (CUDC-101 + Foretinib; first compound 0.1 µM) | relative viability (CUDC-101 + Foretinib; first compound 0.3162 µM) | relative viability (CUDC-101 + Foretinib; first compound 1 µM) | relative viability (CUDC-101 + Alpelisib; first compound 0.01 µM) | relative viability (CUDC-101 + Alpelisib; first compound 0.03162 µM) | relative viability (CUDC-101 + Alpelisib; first compound 0.1 µM) | relative viability (CUDC-101 + Alpelisib; first compound 0.3162 µM) | relative viability (CUDC-101 + Alpelisib; first compound 1 µM) | relative viability (CUDC-101 + Decitabine; first compound 0.01 µM) | relative viability (CUDC-101 + Decitabine; first compound 0.03162 µM) | relative viability (CUDC-101 + Decitabine; first compound 0.1 µM) | relative viability (CUDC-101 + Decitabine; first compound 0.3162 µM) | relative viability (CUDC-101 + Decitabine; first compound 1 µM) | relative viability (NVP-TAE684 + Phenformin; first compound 0.2 µM) | relative viability (NVP-TAE684 + Phenformin; first compound 0.6325 µM) | relative viability (NVP-TAE684 + Phenformin; first compound 2 µM)
PC-14 | 0.939 | 0.745 | 0.495 | 0.628 | 0.21 | 0.983 | 0.894 | 0.62 | 0.673 | 0.287 | 0.253 | 0.249 | 0.158 | 0.179 | 0.0808 | 0.505 | 0.488 | 0.537
H3255 | 0.864 | 0.917 | – | 0.486 | 0.279 | 0.71 | 0.552 | 0.177 | 0.375 | 0.136 | 0.643 | 0.549 | – | 0.227 | 0.15 | 0.348 | 0.397 | 0.453
NCI-H460 | 0.991 | 0.917 | 1.02 | 1.03 | 0.93 | 0.478 | 0.42 | 0.589 | 0.443 | 0.465 | 0.522 | 0.459 | 0.423 | 0.533 | 0.433 | 0.354 | 0.547 | 0.0633
HOP-62 | 1.08 | 1.08 | 1.1 | 1.14 | 0.713 | 0.777 | 0.792 | 1.11 | 1.05 | 0.741 | 0.288 | 0.238 | 0.224 | 0.22 | 0.229 | 0.545 | 0.734 | 0.788
HCC-78 | 0.549 | 0.56 | 0.543 | 0.494 | 0.268 | 0.288 | 0.282 | 0.452 | 0.256 | 0.146 | 0.738 | 0.591 | 0.719 | 0.624 | 0.433 | 0.658 | 0.442 | 0.422
NCI-H2085 | 0.964 | 0.929 | 0.823 | 0.996 | 0.697 | 0.957 | 1.01 | 0.925 | 1.01 | 0.868 | 0.642 | 0.552 | 0.634 | 0.568 | 0.551 | 0.753 | 0.694 | 0.694
COR-L23 | 1.12 | 0.947 | 0.924 | 0.96 | 0.494 | 0.968 | 0.753 | 0.661 | 0.617 | 0.349 | 0.432 | 0.383 | 0.332 | 0.376 | 0.164 | 0.329 | 0.406 | 0.201
HARA | 0.903 | 0.78 | 0.853 | 0.611 | 0.285 | 0.752 | 0.661 | 0.583 | 0.54 | 0.225 | 0.446 | 0.515 | – | 0.464 | 0.254 | 0.397 | 0.394 | 0.304
201T | 1.11 | 0.835 | 1.03 | 1.28 | 0.936 | 0.932 | 0.937 | 0.926 | 1.05 | 0.88 | 0.835 | 0.863 | 0.844 | 0.842 | 0.828 | 0.421 | 0.437 | 0.38
